Results published in US7700080B2, “Method of suppressing melanin production by metal chelates of lipoyl amino acid derivatives” (Senju Pharmaceutical Co., Ltd., priority 2001, dated 2010).

Assays:
[1] = biological target: T1, Tyrosine hydroxylase from rat brain (Rattus norvegicus, UniProt P04177); assay: Tyrosine hydroxylase inhibiting activity; format: biochemical; conditions: for Tyrosine hydroxylase inhibition rate: 37° C., 40 minutes, pH 6.0
T1 construct: Tyrosine hydroxylase from rat brain was used in the test; from tissue; host or cells: rat brain
T1 sequence (P04177 whole entry): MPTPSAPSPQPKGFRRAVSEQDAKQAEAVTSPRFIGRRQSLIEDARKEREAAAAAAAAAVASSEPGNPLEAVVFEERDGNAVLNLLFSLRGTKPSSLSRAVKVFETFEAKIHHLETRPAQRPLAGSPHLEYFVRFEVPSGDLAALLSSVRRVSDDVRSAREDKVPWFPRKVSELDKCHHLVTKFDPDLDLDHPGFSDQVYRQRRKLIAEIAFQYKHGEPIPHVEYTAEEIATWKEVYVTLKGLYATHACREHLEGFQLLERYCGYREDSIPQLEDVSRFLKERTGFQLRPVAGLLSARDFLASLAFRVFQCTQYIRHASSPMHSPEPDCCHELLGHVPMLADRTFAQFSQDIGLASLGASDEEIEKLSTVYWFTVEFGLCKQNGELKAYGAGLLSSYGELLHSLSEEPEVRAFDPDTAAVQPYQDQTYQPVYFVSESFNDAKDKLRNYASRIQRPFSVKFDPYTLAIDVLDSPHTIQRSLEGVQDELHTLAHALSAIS
Experimental: Tyrosine hydroxylase from rat brain was used in the test.
A test compound added to 100 μM tyrosine containing L-[3,5-^3H] tyrosine (0.5 μCi/assay), 1 mg of tyrosine hydroxylase, 0.2 mM of (6R)-5,6,7,8-tetrahydro-L-biopterin, 1.8 mg/ml catalase, 5 mM dithiothreitol (in MES buffer, pH 6.0) was incubated at 37° C. for 40 minutes. The reaction was terminated by addition of 7.5% charcoal in 1 M hydrochloric acid.
^3H2O derived from 3,4-dihydroxyphenylalanine (DOPA) was determined by liquid scintillation.

[2] = system: B16-F0 melanoma cell line; assay: Melanin production suppressing activity in B16-F0 melanoma cells; format: cell-based, mouse; conditions: for Melanin amount (% of control): three days with 2 mM theophylline; for Suppressive action on melanin production (in words): summary of Table 2, compared with arbutin or kojic acid
Experimental: B16-F0 melanoma cell line of mouse origin, purchased from Dainippon Pharmaceutical Co., Ltd. was used in the experiment. In 60-mm petri dish, 200,000 cells were incubated for five days in a medium (D-MEM*+10% FBS*) supplemented with 0.1% D-glucosamine hydrochloride, an inhibitor of carbohydrate synthesis, to halt melanin synthesis and turn the culture white. Following the 5-day culture, the cells were washed with PBS(−)* to remove D-glucosamine hydrochloride, and 2 mM theophylline (250-fold concentrated solution/distilled water), a phosphodiesterase inhibitor, was added to raise intracellular cAMP and thereby promote the recovery of tyrosinase synthesis. At the same time, a test compound (250-fold concentrated solution/PBS(−)) was added. Three days after the addition of theophylline and the test compound, the cells were harvested by trypsin treatment. The cell pellets were resuspended in 1 ml of PBS(−), 0.1 ml of which was used for counting cells, and 0.9 ml for melanin determination. Determination of melanin was carried out by washing the cell pellets once with 5% trichloroacetic acid, ethanol/diethyl ether (3:1), and then diethyl ether, adding 1 ml of 2 N NaOH to lyse the cells, measuring optical density at 420 nm, and comparing the result with a calibration curve produced with reference standard.

[3] = system: elastase; assay: Elastase inhibiting activity (Suc(Ome)-Ala-Ala-Pro-Val-MCA fluorescence); format: biochemical; conditions: for Elastase inhibition rate (%): 25° C., pH 7.5; for Elastase inhibiting activity (in words): summary of Table 3
Experimental: 96-well plates were used. 1 mM of Suc(Ome)-Ala-Ala-Pro-Val-MCA, 30 μl of a test sample, 210 μl of Tris-NaCl Buffer (25° C., pH 7.5) and 30 μl of 1 unit/ml elastase were added and fluorescence was measured every minute (Ex. 360/40 nm, Em. 460/40 nm). Inhibition rates of elastase activity were determined based on a calibration curve produced with AMC (7-amino-4-methyl-coumarin) reference standard.

| Tyrosine hydroxylase inhibition rate ([1]; test compound 0.1 mM) | Tyrosine hydroxylase inhibition rate ([1]; test compound 1 mM) | Elastase inhibition rate (%) ([3]; 0.03 mM) | Elastase inhibition rate (%) ([3]; 0.1 mM) | Elastase inhibition rate (%) ([3]; 0.3 mM) | Elastase inhibition rate (%) ([3]; 1 mM) | SMILES | Melanin amount (% of control) ([2]; 0.03 mM) | Melanin amount (% of control) ([2]; 0.1 mM) | Melanin amount (% of control) ([2]; 0.3 mM) | Suppressive action on melanin production (in words) [2] | Tyrosine hydroxylase inhibiting activity (in words) ([1]; summary of Table 1) | Elastase inhibiting activity (in words) [3] | Melanin amount (% of control) ([2]; 1 mM) | Melanin amount (% of control) ([2]; 10 mM) |
| --- | --- | --- | --- | --- | --- | --- | --- | --- | --- | --- | --- | --- | --- | --- |
| 2% | 1% | −2.94% | 11.76% | 10.29% | – | O=C(O)CCCCC1CCSS1 (stereo not drawn) [α-lipoic acid, reference compound] | – | – | – | – | no tyrosine hydroxylase inhibiting activity | did not show any elastase inhibiting activity | – | – |
| – | – | 83.33% | – | – | – | O=C(CCCCC1CC[S][Zn][S]1)NC(Cc1ccccc1)C(=O)[O-].[Na+] (centres unmarked) [Example 7, N-(6,8-dimercaptooctanoyl)phenylalanine sodium salt zinc chelate compound] | 71.43 % of control | 37.78 % of control | – | potent suppressive action on melanin production | – | comparable to Elastinal | – | – |
| – | – | 7.41% | 68.52% | 88.89% | – | CSCCC(NC(=O)CCCCC1CC[S][Zn][S]1)C(=O)O (centres unmarked) [Example 9, N-(6,8-dimercaptooctanoyl)methionine zinc chelate compound] | 63.05 % of control | 50.18 % of control | 16.41 % of control | potent suppressive action on melanin production | – | comparable to Elastinal | – | – |
| – | – | – | – | – | – | OC[C@H]1O[C@@H](Oc2ccc(O)cc2)[C@H](O)[C@@H](O)[C@@H]1O [Arbutin, reference compound] | – | 97.29 % of control | 88.86 % of control | – | – | – | 83.02 % of control | – |
| – | – | – | – | – | – | O=c1cc(CO)occ1O [Kojic acid, reference compound] | – | 92.70 % of control | 88.04 % of control | – | – | – | 68.80 % of control | 18.73 % of control |
| – | – | 94.74% | – | – | – | O=C([O-])CCCCCNC(=O)CCCCC1CC[S][Zn][S]1.[Na+] (centres unmarked) [Example 5, N-(6,8-dimercaptooctanoyl)-6-aminohexanoic acid sodium salt zinc chelate compound] | 64.43 % of control | 27.69 % of control | 9.85 % of control | potent suppressive action on melanin production | – | comparable to Elastinal | – | – |
| – | – | 25.29% | 56.87% | 77.45% | 93.01% | CC(C)C[C@H](NC(=O)N[C@H](C(=O)N[C@@H](CCC(N)=O)C(=O)N[C@@H](C)C=O)[C@@H]1CCNC(=N)N1)C(=O)O [Elastinal, reference compound] | – | – | – | – | – | – | – | – |
| 11% | 10% | – | – | – | – | O=C(CCCCC1CCSS1)NCCS(=O)(=O)[O-].[Na+] (stereo not drawn) [Reference Example 1, N-α-lipoylaminoethanesulfonic acid sodium salt] | – | – | – | – | – | – | – | – |

| SMILES | Tyrosine hydroxylase inhibition rate ([1]; test compound 0.1 mM) | Tyrosine hydroxylase inhibition rate ([1]; test compound 1 mM) | Elastase inhibition rate (%) ([3]; 0.03 mM) | Elastase inhibition rate (%) ([3]; 0.1 mM) | Elastase inhibition rate (%) ([3]; 0.3 mM) | Elastase inhibition rate (%) ([3]; 1 mM) | Melanin amount (% of control) ([2]; 0.03 mM) | Melanin amount (% of control) ([2]; 0.1 mM) | Melanin amount (% of control) ([2]; 0.3 mM) | Suppressive action on melanin production (in words) [2] | Tyrosine hydroxylase inhibiting activity (in words) ([1]; summary of Table 1) | Elastase inhibiting activity (in words) [3] | Melanin amount (% of control) ([2]; 1 mM) | Melanin amount (% of control) ([2]; 10 mM) |
| --- | --- | --- | --- | --- | --- | --- | --- | --- | --- | --- | --- | --- | --- | --- |
| O=C(CCCCC1CC[S][Zn][S]1)NCCS(=O)(=O)[O-].[Na+] (centres unmarked) [Example 1, N-(6,8-dimercaptooctanoyl)aminoethanesulfonic acid sodium salt zinc chelate compound] | 15% | 53% | – | – | – | – | 78.33 % of control | 30.01 % of control | 12.28 % of control | potent suppressive action on melanin production | – | – | – | – |
| O=C([O-])CCCNC(=O)CCCCC1CC[S][Zn][S]1.[Na+] (centres unmarked) [Example 6, N-(6,8-dimercaptooctanoyl)-γ-amino-n-butyric acid sodium salt zinc chelate compound] | – | – | 78.95% | – | – | – | 61.18 % of control | 29.20 % of control | 9.73 % of control | potent suppressive action on melanin production | – | comparable to Elastinal | – | – |
| O=C(CCCCC1CC[S][Zn][S]1)Nc1ccccc1C(=O)[O-].[Na+] (centres unmarked) [Example 8, N-(6,8-dimercaptooctanoyl)anthranilic acid sodium salt zinc chelate compound] | – | – | 24.07% | 48.15% | 72.22% | – | 72.47 % of control | 47.64 % of control | 16.74 % of control | potent suppressive action on melanin production | – | comparable to Elastinal | – | – |
